Test results reported in article PMC5897774, “Mitotic spindle association of TACC3 requires Aurora‐A‐dependent stabilization of a cryptic α‐helix” (The EMBO Journal, 2018).
Where two headings read alike, the source gives them in different places. Residues, ends and D or L forms follow the SMILES beside them. No end group written: not given here.

Tests used:
Aurora‐A [1] = target: T1, Aurora‐A (Homo sapiens, UniProt O14965, C290A/C393A); test: FP binding assay, FAM-TACC3 peptides to Aurora‐A (WT); conditions: fluorescence polarization
T1 construct: pET30TEV Aurora‐A 122–403 C290A, C393A; made in house
T1 sequence (O14965 122-403 C290A/C393A): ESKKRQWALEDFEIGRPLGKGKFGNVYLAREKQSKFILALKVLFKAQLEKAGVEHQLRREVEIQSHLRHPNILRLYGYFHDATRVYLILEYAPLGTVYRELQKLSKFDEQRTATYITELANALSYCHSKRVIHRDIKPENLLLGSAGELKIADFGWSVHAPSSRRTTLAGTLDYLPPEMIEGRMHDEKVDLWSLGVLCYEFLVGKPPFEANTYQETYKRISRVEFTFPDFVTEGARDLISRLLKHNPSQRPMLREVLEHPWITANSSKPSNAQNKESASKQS
Procedure: The contributions of the site 1 residues to the interaction were quantified using fluorescence polarization spectroscopy (FP) with a set of fluorescein (FAM)‐labelled peptides. […] Mutations within the pocket on Aurora‐A which accommodates the F525 side chain (E134A, R137A, L149A, R151A and I158A mutations) all reduced the affinity for the WT TACC3 522–536 peptide.
Aurora‐A/TACC3 fluorescence polarization assays were performed as stated (Richards et al, 2016) using FAM‐TACC3 peptides (PPR, Cambridge; Almac, Craigavon). Binding assays were performed in triplicate. FP signal was fit to a one‐site total binding model in Prism 6 (GraphPad). Results are reported as K d ± SE.

[2] = NMR chemical shift index analysis of TACC3 549–570 helicity; assay type: physicochemical; conditions: 2 mM peptide, 20 mM Tris pH 7.2, 50 mM NaCl, 290 K, αH and αC secondary shifts
Source text: We used NMR spectroscopy to determine the extent to which these α‐helices are present in TACC3 in the absence of binding partners in solution. Chemical shift index (CSI) plots were created for phosphorylated and unphosphorylated TACC3^CID following standard methods (Fig 7D and E; Wishart & Sykes, 1994). In addition to calculating α‐proton chemical shifts we also measured secondary chemical shifts for α‐carbons. After the type of amino acid, the main contribution to chemical shifts of α‐carbons is the ψ angle and thus the backbone conformation. Proximity of charges or aromatic side chains which can strongly affect proton chemical shifts has virtually no effect on the chemical shifts of α‐carbons which makes them very robust probes of backbone conformation. […] We concluded that phosphorylation of S558 increases the propensity for α‐helix formation in TACC3, and we examined the structure to identify the mechanism.
For analysis of TACC3 549–570 helicity, synthetic peptides were weighed in to give a sample concentration of 2 mM in 20 mM Tris pH 7.2 and 50 mM NaCl. Spectra were recorded at a temperature of 290 K on a Bruker Avance‐Neo 600 MHz spectrometer equipped with a prodigy cryoprobe. Peptides were assigned using 2D NOESY, TOCSY and 13C HSQC spectra recorded with watergate and gradient coherence selection, respectively. […]

[3] = test system: mitotic spindle, HeLa cells; test: Spindle localization of re‐expressed GFP‐CHC constructs in CHC‐depleted HeLa cells; assay type: cell-based, human; conditions: metaphase, endogenous CHC depleted, confocal imaging
Procedure: For RNAi and re‐expression of GFP‐tagged proteins in HeLa cells, siRNA and pBrain plasmids were used. Briefly, for TACC3, cells were transfected with siRNA on day 0, transfected 10 h later with pBrain plasmid and analysed on day 2. For CHC, cells were transfected with siRNA on day 0, transfected with pBrain plasmids on day 2 and fixed on day 4.
For immunofluorescence studies on the CHC/TACC3 interface mutants, cells were fixed with PTEMF (50 mM PIPES, pH 7.2, 10 mM EGTA, 1 mM MgCl2, 0.2% Triton X‐100, and 4% paraformaldehyde) for 15 min at RT, and then permeabilized (PBS with 0.1% Triton X‐100) for 10 min. Cells were blocked (PBS with 3% BSA, 5% goat serum) for 30 min, and then incubated for 1 h with the specified primary antibodies: mouse anti‐CHC (X22, Affinity BioReagents, 1:1,000), rabbit anti‐alpha tubulin (Thermo, PA5‐19489, 1:1,000), mouse anti‐TACC3 (AbCam, ab56595, 1:1,000). Secondary antibodies labelled with Alexa Fluor 568 or Alexa Fluor 647 from Life Technologies (diluted 1:500) were used along with DAPI. […] Equal exposure settings and scaling were used between conditions.
For spindle enrichment analysis, mean pixel density in two 10 × 10 pixel ROI was measured either over the spindle (away from poles), in the cytoplasm or in a non‐cell region of background, using ImageJ. Background was subtracted from the spindle and cytoplasm measurements, and spindle fluorescence was then divided by cytoplasm fluorescence. Sample sizes 48–53 cells (TACC3) and 36–51 cells (CHC) over two experiments were analysed per condition. […] Differences in spindle recruitment were evident at all expression levels. IgorPro was used to find and plot the ratio of spindles to cytoplasmic fluorescence intensity per cell. Images were cropped in ImageJ, and figures were assembled in Adobe Illustrator. Some images were contrast adjusted for presentation.

Aurora‐A [4] = target: T1, Aurora‐A; design: method as in Burgess et al, 2015; conditions: previous data, effect of F525A mutation; ref Burgess et al, 2015; read-out: K d of the interaction; cited from earlier work
[5] = test system: Aurora‐A KD (substrate: Aurora‐A D274N); test: Substrate phosphorylation of kinase‐dead Aurora‐A D274N by Aurora‐A KD (Western blot αphospho‐T288); assay type: biochemical, human; conditions: Aurora‐A D274N as substrate, 1 h, room temperature
Source text: (§1) Figure 2 TACC3 523–534 forms a docking interaction on the N‐lobe of Aurora‐A • Magnified view of the site 1 interaction. • Schematic showing the key features of the TACC3/Aurora‐A interface. • FP assays of binding between site 1 of TACC3 and Aurora‐A. The sequence of TACC3 present in the complex crystal structure is shown (top) with the residues of the site 1 FP peptide coloured orange and mutated residues identified by coloured circles corresponding to the curves shown in the FP assay (below). Data represent mean of three experiments ± SD. […] Data represent mean of three experiments ± SD. […] Reactions were analysed by SDS–PAGE (above) and Western blotting with an αphospho‐T288 Aurora‐A antibody (below). […] They are listed as printed.
(§2) Autophosphorylation assays were performed as for radioactive ^32P‐ATP reactions using Aurora‐A 122–403 co‐expressed with lambda phosphatase for 1 h at room temperature with His‐Aurora‐A D274N as a substrate in replace of MBP. Reactions were resolved by SDS–PAGE and subject to Western blotting using an α‐phospho‐T288 Aurora‐A antibody (CST 2914, 1:2,000) as per the manufacturer's recommendation.

Aurora‐A [6] = target: T1, Aurora‐A; test: Radioactive 32P‐ATP kinase assay, MBP substrate; assay type: biochemical; conditions: 0.625 μM phosphorylated Aurora‐A, 5 μM TACC3^N‐ACID, 0.25 mg/ml MBP, 10 min, scintillation counting, duplicate
Procedure: Figure EV2 Biochemical and structural analysis of the Aurora‐A/TACC3 complex • FP assay between FAM‐TACC3 519–570 and Aurora‐A. Reactions were performed in triplicate. Error bars represent standard deviation. […] Error bars represent standard deviation. […] This peptide was based on the location of a sulphate ion, originating from the crystallization solution, at the interface of the Aurora‐A/TACC3 interface in the crystal structure, close to TACC3 T534. […] Myelin basic protein (MBP) was used as a generic kinase substrate. Incorporation of radioisotope was measured by scintillation counting. Reactions were performed in duplicate. Error bars represent standard error. Assays were compared to the WT TACC3^N‐ACIDH6c reaction by one‐way ANOVA with Dunnett's post hoc test. […], **P < 0.01 and ****P < 0.0001. • Multiple sequence alignment of TACC3 (above) and Aurora‐A (below) orthologs spanning the interaction binding interface. Key binding residues are boxed in red. The TACC3 phosphorylation sites, S552 and S558, are boxed in blue. The TACC3 LL motif required for binding to CHC is boxed in green. The TACC3 α‐helix produced on binding to CHC is identified by a black line. TEXT PRINTED IN THE PICTURE: (A) TACC3 519-570: 3.0 ± 0.2 μM | (B) WT: 20 ± 1 μM | (B) R526A: 49 ± 2 μM | (B) phospho-T534: 14 ± 1 μM
Radioactive ^32P‐ATP kinase assays were performed as described previously (Burgess et al, 2015). In brief, 0.625 μM Aurora‐A^M3KD WT or selected mutant was incubated with 0.25 mg/ml MBP alone and in the presence of 5 μM TACC3^N‐ACID WT or mutant for 10 min. Reactions were terminated by the addition of 2% (v/v) orthophosphoric acid. Samples were spotted onto P81 Whatman paper, washed extensively with 0.2% (v/v) orthophosphoric acid and incorporation of radioisotope measured by scintillation counting.

[7] = test system: unphosphorylated Aurora‐A KD; test: Autophosphorylation assay of unphosphorylated Aurora‐A KD (Western blot αphospho‐T288); assay type: biochemical, human; conditions: unphosphorylated Aurora‐A 122–403, 1 h, room temperature
Source text: as §1, §2

[8] = target: T2, FAM‐TACC3 549–570 phosphorylated on S558 (FAM‐phospho‐TACC3^CID) (human, UniProt Q9Y6A5 549-570, fluorescein (FAM) label; phosphoserine at 558); test: fluorescence polarisation; CHC proteins serially diluted in 20 mM HEPES–NaOH pH 7.5, 200 mM NaCl, 5 mM DTT; 50 nM FAM‐labelled TACC3 peptide; 30 min at room temperature; read at 25°C; conditions: both partners purified
T2 construct: TACC3, human, aa549–570 (TACC3^CID); also called pTACC3^CID; FAM‐labelled pTACC3^CID; source: FAM‐labelled peptide (FAM‐TACC3 peptides: PPR, Cambridge; Almac, Craigavon)
T2 peptide (looked up): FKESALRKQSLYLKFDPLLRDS

Work on `CC(C)[C@H](NC(=O)[C@H](CCC(=O)O)NC(=O)[C@H](C)NC(=O)[C@@H]1CCCN1C(=O)[C@H](CC(=O)O)NC(=O)[C@H](CCCNC(=N)N)NC(=O)[C@H](Cc1ccccc1)NC(=O)[C@H](CO)NC(=O)[C@H](CCC(=O)O)NC(=O)[C@H](CCC(=O)O)NC(=O)c1ccc2c(c1)C(=O)OC21c2ccc(O)cc2Oc2cc(O)ccc21)C(=O)N[C@@H](C)C(=O)NCC(=O)N[C@H](C(=O)NCC(=O)N[C@@H](C)C(=O)O)[C@@H](C)O` [L532A] (HELM PEPTIDE1{[O=C1OC2(c3ccc(O)cc3Oc3cc(O)ccc32)c2ccc(C(=O)[*:2])cc21].E.E.S.F.R.D.P.A.E.V.A.G.T.G.A}$$$$V2.0; N-terminus and C-terminus assumed) yielded a reduced affinity (Aurora‐A [1]; relative to WT TACC3 522–536 peptide) of 10 fold.

With “ELKEESFRDPAEVLGTGAEVDYLEQFGTSSFKESALRKQSLYLKFDPLLRDS [FAM‐TACC3 519–570]” the Kd (Aurora‐A [1]; FAM‐labelled peptide, triplicate, one‐site total binding fit, legend: mean of three experiments ± SD, methods: K d ± SE, read-out: K d (binding affinity)) was 3 ± 0.2 µM.

With “FKESALRKQSLYLKFDPLLRDS [phosphorylated peptide, synthetic TACC3 549–570 peptide phosphorylated at S558, used for NMR]” the “propensity for helix formation (CSI)” value [2] was “much higher propensity”.

In the case of “GFP‐CHC D455K: mutation of a residue that holds R481 in place”, the “spindle localization of GFP‐CHC construct” value (shortened to “spindle localization”) [3] is reported as “impaired in spindle localization”.

For “GFP‐CHC L476D, L480D: GFP-CHC mutated in the TACC3 binding site”, the “spindle localization” value [3] was “impaired in spindle localization”.

For “GFP‐CHC L503A, Y504A: GFP-CHC mutated in the TACC3 binding site”, the “spindle localization” value [3] was “impaired in spindle localization”.

For “GFP‐CHC R481E: GFP-CHC mutated in the TACC3 binding site”, the “spindle localization” value [3] was “impaired in spindle localization”.

In the case of “TACC3^N‐ACID F525A: TACC3^N-ACID with F525A mutation (ELKEESARDPAEVLGTGAEVDYLEQFGTSSFKESALRKQSLYLKF; not fully specified (C-terminus))”, the Kd (Aurora‐A [4]) is listed as greater than 150 µM, the “substrate phosphorylation on T288 (Aurora‐A D274N)” value [5] is listed as “reduced” and the “stimulation of Aurora‐A activity” value (Aurora‐A [6]) is listed as “twofold–threefold”. For the same molecule, the “Aurora‐A autophosphorylation on T288” value [7] was “reduced”.

With “TACC3^N‐ACID L532A: TACC3^N-ACID with L532A mutation (ELKEESFRDPAEVAGTGAEVDYLEQFGTSSFKESALRKQSLYLKF; not fully specified (C-terminus))” the “stimulation of Aurora‐A activity” value (Aurora‐A [6]) was “twofold–threefold”.

B1: CHC 1–574 F492Y (domain or fragment, UniProt Q00610 1-574, looked up)
chain: MAQILPIRFQEHLQLQNLGINPANIGFSTLTMESDKFICIREKVGEQAQVVIIDMNDPSNPIRRPISADSAIMNPASKVIALKAGKTLQIFNIEMKSKMKAHTMTDDVTFWKWISLNTVALVTDNAVYHWSMEGESQPVKMFDRHSSLAGCQIINYRTDAKQKWLLLTGISAQQNRVVGAMQLYSVDRKVSQPIEGHAASFAQFKMEGNAEESTLFCFAVRGQAGGKLHIIEVGTPPTGNQPFPKKAVDVFFPPEAQNDFPVAMQISEKHDVVFLITKYGYIHLYDLETGTCIYMNRISGETIFVTAPHEATAGIIGVNRKGQVLSVCVEEENIIPYITNVLQNPDLALRMAVRNNLAGAEELFARKFNALFAQGNYSEAAKVAANAPKGILRTPDTIRRFQSVPAQPGQTSPLLQYFGILLDQGQLNKYESLELCRPVLQQGRKQLLEKWLKEDKLECSEELGDLVKSVDPTLALSVYLRANVPNKVIQCYAETGQVQKIVLYAKKVGYTPDWIFLLRNVMRISPDQGQQFAQMLVQDEEPLADITQIVDVFMEYNLIQQCTAFLLDALKNNR
notes: source: expressed and purified as the WT protein (modified pGEX vector; GST cleaved with TEV)
In the case of B1, the “fold increase in Kd against WT” value [8] is reported as greater than 6 fold.
